Key:
GEMM riboswitch = settings: Sudarsan et al. 2008; read-out: affinity; cited from earlier work
[1] = biological target: GEMM riboswitch Vc2 110 (WT-110); experiment: Gel-shift Kd measurement, WT-110 RNA; type: binding, Vibrio cholerae; settings: for Kd / binding (in words): gel-shift; for Kd: radiolabeled ligand, RNA WT-110, dash = no binding
Source text: (§1) Point mutants were cloned using the Quik Change protocol. Radiolabeled c-di-GMP was obtained enzymatically according to published procedures and purified by polyacrylamide gel electrophoresis (PAGE) (Paul, R. et al. Cell cycle-dependent dynamic localization of a bacterial response regulator with a novel di-guanylate cyclase output domain. Genes & Development 18, 715-27 (2004); Christen, M., Christen, B., Folcher, M., Schauerte, A. & Jenal, U. Identification and characterization of a cyclic di-GMP-specific phosphodiesterase and its allosteric control by GTP. J Biol Chem 280, 30829-37 (2005)). A constitutively active DGC, PleD* was expressed and purified as described and the reaction was initiated using [α-^32P]GTP as the substrate (Paul, R. et al. Cell cycle-dependent dynamic localization of a bacterial response regulator with a novel di-guanylate cyclase output domain. Genes & Development 18, 715-27 (2004)). A single band appeared as the reaction proceeded that ran slower than the starting material when purified by PAGE. Radiolabeled c-diAMP was obtained similarly, using the protein DisA and [α-^32P]ATP as the substrate. Riboswitch RNAs were folded in the presence of radiolabeled c-di-GMP or c-diAMP and folding buffer. The complex was allowed to equilibrate for 1 hour and bound and free c-di-GMP were separated by native (100 mM Tris/HEPES pH 7.5, 10 mM MgCl2, 0.1 mM EDTA) PAGE at 4° C. A STORM phosphorimager was used to scan gels and the bands were quantitated using ImageQuant. Fraction bound was graphed versus RNA concentration and fit using KaleidaGraph to obtain Kds according to the equation:
(§2) F=fraction bound; F∞=fraction bound at saturation; C=riboswitch concentration
(§3) A gel-shift assay, which directly measures c-di-GMP binding to the GEMM RNA (FIG. 3A, B), was developed in order to test biochemical predictions resulting from the GEMM riboswitch structure. Specifically, radiolabeled c-di-GMP was incubated with the riboswitch and the RNA bound ligand was separated from the free on a native polyacrylamide gel.
This assay was used to measure a binding constant for the crystallized RNA and also to verify that this method gave the Kd measurements similar to what had been fond using in-line probing. To validate the method, Vc2 110 was used and found to have a Kd of ˜7 nM. This value agrees well with affinities obtained previously by in-line probing for this same sequence (Sudarsan, N. et al. Riboswitches in eubacteria sense the second messenger cyclic di-GMP. Science 321, 411-3). A RNA corresponding to the crystallization construct with no U1A binding loop (Vc2 91) was then tested. […] The RNA used in the crystallographic studies (Vc2 91 with a U1A binding loop) bound with a Kd slightly weaker than wild-type, but is within 9-fold of the original value.

[2] = tested on: GEMM riboswitch A47G mutant (WT-110 background); experiment: Gel-shift Kd measurement, A47G mutant RNA; type: binding, Vibrio cholerae; settings: for Kd: gel-shift, RNA A47G, dash = no binding
Source text: as §1, §2, §3
The three nucleotides directly involved in ligand recognition (G20, A47 and C92) were mutated and affinity for c-di-GMP was measured by gel shift analysis in the context of the WT-110 nucleotide background (Table 1) (Sudarsan, N. et al. Riboswitches in eubacteria sense the second messenger cyclic di-GMP. Science 321, 411-3). Mutational analysis supports the crystallographically observed base pair between a conserved cytidine, C92, and c-di-GMP. […] By mutating it to an A or G, this ability to base pair with the ligand is lost. The large effect that these mutations have on ligand binding confirms that C92 is making an important contact with Gβ. The minor affect seen upon mutation to a U is in a reasonable range given the potential to form a wobble pair with Gβ. […]

[3] = tested on: GEMM riboswitch G20C mutant (WT-110 background); experiment: Gel-shift Kd measurement, G20C mutant RNA; type: binding, Vibrio cholerae
Source text: as §1
F=fraction bound; F∞=fraction bound at saturation; C=riboswitch concentration […]
(§4) The three nucleotides directly involved in ligand recognition (G20, A47 and C92) were mutated and affinity for c-di-GMP was measured by gel shift analysis in the context of the WT-110 nucleotide background (Table 1) (Sudarsan, N. et al. Riboswitches in eubacteria sense the second messenger cyclic di-GMP. Science 321, 411-3). […]

[4] = biological target: GEMM riboswitch C92U, G20A mutant; experiment: Gel-shift Kd measurement, C92U, G20A double mutant RNA; type: binding, Vibrio cholerae; settings: for Kd: gel-shift, RNA C92U, G20A, dash = no binding
Source text: as §1, §2
as §3, with “gel. […]” for “gel.”

[5] = tested on: GEMM riboswitch C92 to G mutant (WT-110 background); experiment: Gel-shift affinity measurement, C92G mutant RNA; type: binding, Vibrio cholerae
Source text: (§5) Point mutants were cloned using the Quik Change protocol. Radiolabeled c-di-GMP was obtained enzymatically according to published procedures and purified by polyacrylamide gel electrophoresis (PAGE) (Paul, R. et al. Cell cycle-dependent dynamic localization of a bacterial response regulator with a novel di-guanylate cyclase output domain. Genes & Development 18, 715-27 (2004); Christen, M., Christen, B., Folcher, M., Schauerte, A. & Jenal, U. Identification and characterization of a cyclic di-GMP-specific phosphodiesterase and its allosteric control by GTP. J Biol Chem 280, 30829-37 (2005)). A constitutively active DGC, PleD* was expressed and purified as described and the reaction was initiated using [α-^32P]GTP as the substrate (Paul, R. et al. Cell cycle-dependent dynamic localization of a bacterial response regulator with a novel di-guanylate cyclase output domain. Genes & Development 18, 715-27 (2004)). […] A STORM phosphorimager was used to scan gels and the bands were quantitated using ImageQuant. […]
as §4

[6] = biological target: known c-di-GMP binding proteins; settings: range from 50 nM to several micromolar; Hengge 2009; read-out: binding affinity; cited from earlier work
[7] = biological target: GEMM riboswitch Vc2 91 (WT-91); experiment: Gel-shift Kd measurement, WT-91 RNA (crystallization construct with no U1A binding loop); parameters: species or system Vibrio cholerae; settings: radiolabeled ligand, RNA WT-91, dash = no binding seen
Source text: as §5, with “(2004)). A single band appeared as the reaction proceeded that ran slower than the starting material when purified by PAGE. Radiolabeled c-diAMP was obtained similarly, using the protein DisA and [α-^32P]ATP as the substrate. Riboswitch RNAs were folded in the presence of radiolabeled c-di-GMP or c-diAMP and folding buffer.” for “(2004)).”

[8] = tested on: GEMM riboswitch G20U mutant (WT-110 background); experiment: Gel-shift Kd measurement, G20U mutant RNA; type: binding, Vibrio cholerae
Source text: as §5, §4

[9] = biological target: GEMM riboswitch Vc2 91 with a U1A binding loop (WT-U1A); experiment: Gel-shift Kd measurement, WT-U1A RNA (Vc2 91 with a U1A binding loop); parameters: species or system Vibrio cholerae
Source text: as §5, with “(2004)). A single band appeared as the reaction proceeded that ran slower than the starting material when purified by PAGE. Radiolabeled c-diAMP was obtained similarly, using the protein DisA and [α-^32P]ATP as the substrate. Riboswitch RNAs were folded in the presence of radiolabeled c-di-GMP or c-diAMP and folding buffer.” for “(2004)).”

[10] = tested on: GEMM riboswitch A47C mutant (WT-110 background); experiment: Gel-shift Kd measurement, A47C mutant RNA; type: binding, Vibrio cholerae
Source text: as §5, §4

[11] = tested on: natural GEMM sequence lacking C at position 92, C at position 93 mutated to an A; experiment: Binding of c-di-GMP to natural GEMM sequence with C93 mutated to A
Protocol: (§6) The three nucleotides directly involved in ligand recognition (G20, A47 and C92) were mutated and affinity for c-di-GMP was measured by gel shift analysis in the context of the WT-110 nucleotide background (Table 1) (Sudarsan, N. et al. Riboswitches in eubacteria sense the second messenger cyclic di-GMP. Science 321, 411-3). Mutational analysis supports the crystallographically observed base pair between a conserved cytidine, C92, and c-di-GMP. […] By mutating it to an A or G, this ability to base pair with the ligand is lost. The large effect that these mutations have on ligand binding confirms that C92 is making an important contact with Gβ. The minor affect seen upon mutation to a U is in a reasonable range given the potential to form a wobble pair with Gβ. A natural GEMM sequence has been identified that lacks a C at position 92, but instead has a C at position 93. This RNA can bind c-di-GMP with an affinity of approximately 1 uM.

[12] = tested on: GEMM riboswitch C92 to A mutant (WT-110 background); experiment: Gel-shift affinity measurement, C92A mutant RNA; type: binding, Vibrio cholerae
Source text: as §5, §4

[13] = tested on: GEMM riboswitch G20A mutant (WT-110 background); experiment: Gel-shift Kd measurement, G20A mutant RNA; type: binding, Vibrio cholerae
Source text: as §5, §4

[14] = tested on: GEMM riboswitch A47U mutant (WT-110 background); experiment: Gel-shift Kd measurement, A47U mutant RNA; type: binding, Vibrio cholerae
Source text: as §5, §4

[15] = biological target: natural GEMM sequence that lacks a C at position 92 but has a C at position 93; experiment: Binding of c-di-GMP to natural GEMM sequence with C at position 93; settings: read-out: affinity
Protocol: as §6

[16] = tested on: GEMM riboswitch C92U mutant (WT-110 background); experiment: Gel-shift Kd measurement, C92U mutant RNA; type: binding, Vibrio cholerae; settings: for Kd / binding (in words): gel-shift; for Kd: RNA C92U, dash = no binding; for binding (in words): C92U RNA
Source text: as §1, §2, §3, §6

Nc1nc2c(ncn2[C@@H]2O[C@@H]3COP(=O)(O)O[C@H]4[C@@H](O)[C@H](n5cnc6c(=O)[nH]c(N)nc65)O[C@@H]4COP(=O)(O)O[C@H]3[C@H]2O)c(=O)[nH]1 [c-di-GMP, cyclic diguanosine monophosphate]
Kd (GEMM riboswitch): ~1 nM
Kd [1]: 7.4 ± 2.4 nM
decrease in binding affinity ([2]; A47 mutated to G vs wild-type): approximately 1000 fold
Kd [2]: 4200 ± 1700 nM
reduction in affinity ([3]; G20C vs wild-type): 2 fold
effect of mutation on affinity (in words) ([3]; G20 to C): maintains approximately wild-type affinity
Kd ([3]; gel-shift, RNA G20C, dash = no binding): 13 ± 1.2 nM
Kd [4]: 3200 ± 600 nM
effect of mutation on affinity (in words) [5]: reduces affinity for c-di-GMP substantially
Kd [6]: ≥ 50 nM
Kd [7]: 6.4 ± 2.8 nM
loss in affinity ([8]; G20U vs wild-type): approximately 45 fold
Kd ([8]; gel-shift, RNA G20U, dash = no binding): 330 ± 150 nM
Kd weaker than wild-type ([9]; Vc2 91 with U1A binding loop vs original value): ≤ 9 fold
Kd ([9]; gel-shift, radiolabeled ligand, RNA WT-U1A, dash = no binding seen): 55 ± 14 nM
decrease in binding affinity ([10]; A47 mutated to C vs wild-type): approximately 1000 fold
Kd ([10]; gel-shift, RNA A47C, dash = no binding): 8500 ± 3000 nM
affinity (in words) [11]: all affinity for c-di-GMP is lost
effect of mutation on affinity (in words) [12]: reduces affinity for c-di-GMP substantially
effect of mutation on affinity (in words) ([13]; G20 to A): maintains approximately wild-type affinity
Kd ([13]; gel-shift, RNA G20A, dash = no binding): 4.7 ± 1.3 nM
decrease in binding affinity ([14]; A47 mutated to U vs wild-type): approximately 1000 fold
Kd ([14]; gel-shift, RNA A47U, dash = no binding): 3500 ± 520 nM
Kd [15]: ~1000 nM
loss in affinity ([16]; C92U vs wild-type, c-di-GMP): 6 fold
Kd [16]: 43 ± 19 nM

Nc1ncnc2c1ncn2[C@@H]1O[C@@H]2COP(=O)(O)O[C@H]3[C@@H](O)[C@H](n4cnc5c(N)ncnc54)O[C@@H]3COP(=O)(O)O[C@H]2[C@H]1O [c-di-AMP, cyclic diadenosine monophosphate]
bound c-di-AMP better than c-di-GMP ([4]; C92U/G20A double mutant): approximately 6 fold
Kd [4]: 540 ± 29 nM

Nc1nc2c(ncn2[C@@H]2O[C@H](COP(=O)(O)O[C@H]3[C@@H](O)[C@H](n4cnc5c(=O)[nH]c(N)nc54)O[C@@H]3COP(=O)(O)O)[C@@H](O)[C@H]2O)c(=O)[nH]1 [pGpG]
Kd [1]: 490 ± 150 nM
binding (in words) ([1]; wild-type sequence): binds
affinity lower than that of the cyclic ligand ([1]; wild-type sequence, pGpG vs c-di-GMP): approximately 66 fold
binds the linear form better than c-di-GMP ([2]; A47G, pGpG vs c-di-GMP): 3 fold
Kd [2]: 1400 ± 120 nM
binding (in words) [16]: does not bind

Nc1nc2c(ncn2[C@@H]2O[C@H](COP(=O)(O)O)[C@@H](OP(=O)(O)OC[C@H]3O[C@@H](n4cnc5c(N)ncnc54)[C@H](O)[C@@H]3O)[C@H]2O)c(=O)[nH]1 [pGpA]
binding (in words) ([1]; wild-type sequence): not
affinity lower than that of the wild-type RNA for pGpG ([16]; C92U RNA with pGpA vs wild-type RNA with pGpG): approximately 27 fold
binding (in words) [16]: binding was observed
Kd [16]: 16000 ± 5200 nM

Nc1nc2c(ncn2[C@@H]2O[C@H](COP(=O)(O)O[C@H]3[C@@H](O)[C@H](n4cnc5c(N)ncnc54)O[C@@H]3COP(=O)(O)O)[C@@H](O)[C@H]2O)c(=O)[nH]1 [pApG]
binding (in words) [16]: does not bind

Source: patent US20120107331A1, “GEMM RIBOSWITCHES, STRUCTURE-BASED COMPOUND DESIGN WITH GEMM RIBOSWITCHES, AND METHODS AND COMPOSITIONS FOR USE OF AND WITH GEMM RIBOSWITCHES” (YALE UNIVERSITY, priority 2009, published 2012)
